How the values were obtained:
C57BL/6J male mice [1] = test: TUNEL staining of mouse myocardium (cardiomyocyte apoptosis); assay type: in vivo; conditions: pretreatment before doxorubicin
Protocol: (§1) Recombinant human GDF15/MIC-1 protein (CHO-derived) was purchased from PeproTech Inc. (Cranbury, USA) and described in Example 1. […] For in vitro studies, solid lyophilized powder of these two drugs were solubilized at the recommended concentrations in sterile water, and separate aliquots were made and frozen until thawing prior to addition to cell cultures. For in vivo studies, all agents were dissolved in […] normal saline according to the required concentrations (doxorubicin, 5 mg/kg; GDF15, 0.5 mg/kg; dexrazoxane, […]), and the final volume of each intraperitoneal injection was 100 μl. The recommended dose ratio of dexrazoxane to doxorubicin was 10 to 1. In the following examples, 5 mg/kg of doxorubicin was used which correspond to 50 mg/kg of dexrazoxane. The FDA recommends that dexrazoxane be injected within 0.5 hour prior to doxorubicin infusion in individuals. This was followed in the same manner when applying to the test animals.
(§2) To induce cardiotoxicity in the mouse, four weekly intraperitoneal injections of doxorubicin at 5 mg/kg were administered. After one dose of doxorubicin at 5-6 mg/kg in a mouse, the level of exposure has been estimated to be similar to that of a human individual being given a standard dose of doxorubicin at approximately 60 mg/m^2. […]

C57BL/6J male mice [2] = assay type: in vivo, mouse; conditions: mice; pretreatment before doxorubicin, versus doxorubicin only
Protocol: as §1, §2
The image processing and analysis software, ImageJ version 1.53K, was used for evaluation of histopathology from mouse experiments. For Masson's trichrome staining, the acquired images were converted from color to grayscale using ImageJ, the blue-stained collagen were segmented (separated) using thresholding, and the threshold areas in a representative microscopic field were quantified. […] Cells containing brown staining (TUNEL-positive cells) were counted in a representative microscopic field for each mouse in each group.

C57BL/6J male mice [3] = test: Noninvasive blood pressure in mouse doxorubicin cardiotoxicity model; assay type: in vivo; conditions: for Day 28 DBP / Day 28 SBP: after doxorubicin 5 mg/kg intraperitoneal once weekly for four weeks (Dox + groups); for Day 28 DBP / Day 28 SBP / Day 0 DBP / Day 0 SBP: n = 4 per group; for Day 0 DBP / Day 0 SBP: before doxorubicin administration
From the text: Recombinant human GDF15/MIC-1 protein (CHO-derived) was purchased from PeproTech Inc. (Cranbury, USA) and described in Example 1. […] PubChem identifier number 71384) were purchased from Abcam (Cambridge, UK). For in vitro studies, solid lyophilized powder of these two drugs were solubilized at the recommended concentrations in sterile water, and separate aliquots were made and frozen until thawing prior to addition to cell cultures. […] The recommended dose ratio of dexrazoxane to doxorubicin was 10 to 1. In the following examples, 5 mg/kg of doxorubicin was used which correspond to 50 mg/kg of dexrazoxane. The FDA recommends that dexrazoxane be injected within 0.5 hour prior to doxorubicin infusion in individuals. This was followed in the same manner when applying to the test animals. Ten- to twelve-week old C57BL/6J male mice were purchased from the Laboratory Animal Services Centre of CUHK. They were maintained in specific pathogen-free facility of the CUHK Laboratory Animal Services Centre Research Unit at Prince of Wales Hospital with free access to food and water and maintained in a light/night cycle of 12 hours/12 hours. All mice were fed a standard diet. Blood pressure of animals was measured using the noninvasive CODA® High Throughput System (Torrington, USA) in accordance with the manufacturer's instructions. Measurement platform was prewarmed and maintained at 33-35° C. O-cuffs and VPR-cuffs were used as instructed. Blood pressure of each mouse was measured for at least three cycles. Mice were released and returned to their cages immediately after measurement. Blood pressure was measured twice, once at the beginning of the experiment and once before sacrifice. To induce cardiotoxicity in the mouse, four weekly intraperitoneal injections of doxorubicin at 5 mg/kg were administered. After one dose of doxorubicin at 5-6 mg/kg in a mouse, the level of exposure has been estimated to be similar to that of a human individual being given a standard dose of doxorubicin at approximately 60 mg/m^2.

hESC-CMs = test: α-actinin immunostaining for sarcomeric integrity; assay type: cell-based, human; conditions: hESC-CMs; agent only, no doxorubicin
Protocol: hESC-CMs were permeabilized using 0.1% Triton X-100 (Thermo Fisher Scientific, USA). After permeabilizing for 15 minutes, cells were washed three times in PBS, and further permeabilization was blocked by incubating cells in PBS with 10% FBS (Hyclone, USA) for 1 hour at room temperature. Cells were incubated with the primary anti-actinin antibody (1:400) (Abcam, UK) and diluted in PBS with 10% FBS overnight. Cells were then washed three times with PBS and incubated with a goat anti-mouse IgG1 secondary antibody (1:1000 diluted in PBS with 10% FBS) (Thermo Fisher Scientific, USA) for 1 hour at room temperature. Finally, cells were washed twice with PBS and mounted using ibidi mounting medium with DAPI (Ibidi, Germany). Microscopic images were acquired using the DMi8s Research Inverted Thunder Imager Live Cell System (Leica, Germany) at 20×, 40×, and 100× magnification.

C57BL/6J male mice [4] = assay type: in vivo, mouse; conditions: mice; pretreatment before doxorubicin
Protocol: as §1
To induce cardiotoxicity in the mouse, four weekly intraperitoneal injections of doxorubicin at 5 mg/kg were administered. After one dose of doxorubicin at 5-6 mg/kg in a mouse, the level of exposure has been estimated to be similar to that of a human individual being given a standard dose of doxorubicin at approximately 60 mg/m^2. Previous studies have shown that mice injected with doxorubicin once a week at 5 mg/kg for four weeks developed cardiotoxicity, as evidenced by decreased ventricular ejection fraction, cardiomyocyte apoptosis, histopathological changes consistent with doxorubicin-induced myocardial damage, and increased mortality rate, compared with the control group.
The hearts of mice were collected after sacrifice and fixed in 4% paraformaldehyde overnight, followed by paraffin embedding. Afterwards the hearts were cut into 4 μm thick slices. Sections were deparaffinized and rehydrated using sequential immersion in 100% alcohol, 95% alcohol and 70% alcohol for 15 minutes each. […]

Molecule | cardiomyocyte death by apoptosis (TUNEL staining) (C57BL/6J male mice [1]) | cardiac fibrosis (Masson's trichrome) (C57BL/6J male mice [2]) | Day 28 DBP (C57BL/6J male mice [3]) [mmHg] | Day 28 SBP (C57BL/6J male mice [3]) [mmHg] | Day 0 DBP (C57BL/6J male mice [3]) [mmHg] | Day 0 SBP (C57BL/6J male mice [3]) [mmHg] | sarcomere structure (α-actinin immunostaining) (hESC-CMs) | myocardial histopathology (hematoxylin and eosin) (C57BL/6J male mice [4]) | systolic and diastolic blood pressures compared with Dex+Dox group (C57BL/6J male mice [3]; Day 28)
C[C@@H](CN1CC(=O)NC(=O)C1)N1CC(=O)NC(=O)C1.Cl [Dex, 4,4′-[(1S)-1-Methyl-1,2-ethanediyl]bis-2,6-piperazinedione hydrochloride, reference compound] | reduced extent of cardiomyocyte death by apoptosis | visually and quantitatively reduced | 84 ± 15 | 108 ± 13 | 78 ± 26 | 114 ± 14 | well-organized, striated sarcomeres | similarly improved | –
GDF15 + Dox: mice given recombinant human GDF15 pretreatment followed by doxorubicin (protein, UniProt Q99988 195-308, looked up, given with doxorubicin) Growth/differentiation factor …: ARARNGDHCPLGPGRCCRLHTVRASLEDLGWADWVLSPREVQVTMCIGACPSQFRAANMHAQIKTSLHRLKPDTVPAPCCVPASYNPMVLIQKTDTGVSLQTYDDLLAKDCHCI | – | – | 85 ± 13 | 111 ± 15 | 76 ± 25 | 108 ± 27 | – | – | lower than that of Dex+Dox treatment group

Reference: patent US12209112B2, “Methods of preventing or treating diseases, conditions, or disorders associated with chemotherapy” (The Chinese University of Hong Kong, priority 2022, dated 2025)
